Experimental data from US20020159981A1, “Methods of controlling proliferation and differentiation of stem and progenitor cells” (Gamida-Cell Ltd., priority 1999, published 2002).

Key:
[1] = tested on: Murine erythroleukemia cells (MEL); experiment: HMBA-induced differentiation and growth of erythroleukemic cells; type: cell-based, mouse; settings: day 3 (Table 2)
Procedure: Mouse erythroleukemic cells (MEL): MEL cells are erythroblast like cells. Following treatment with several chemicals (differentiation inducers) the cells undergo erythroid differentiation and accumulate hemoglobin. […] At day 3 of the culture, the total number of cells and the percentage of hemoglobin-containing cells were determined (Table 2).
On day 3, total cell number and hemoglobin containing (benzidine positive) cells were determined.

embryonal stem cells = experiment: Embryonal stem cell culture: differentiation and proliferation; type: cell-based
Procedure: Thus, embryonal stem cells were cultured for 3-4 days essentially as described in (66), in the presence of LIF (20-100 ng/ml) or TEPA (10-20 μM) and their differentiation compared to non-treated control cells.

NOD/SCID mice = experiment: Engraftment of SCID mice by ex-vivo expanded human hematopoietic cells; type: in vivo; settings: for Engraftment Colonies: 2 weeks ex-vivo, TEPA + Cytokines
Procedure: Engraftment of SCID mice by ex-vivo expanded human hematopoietic cells: Cord blood purified CD34^+ cells either fresh or following 2 or 4 weeks of ex-vivo culture (plus or minus TEPA) were injected into NOD/SCID mice essentially as described in (56). After 4 weeks, the mice were sacrificed and their femora and tibias were excised and the bone marrow flushed with a syringe fitted with a 25 gauge needle. A single cell suspension was prepared, the cells were washed and an aliquot counted with Trypan blue. In order to quantitate engrafted cells of human origin, cells were stained with FITC-conjugated anti CD45 antibodies and PE-conjugated either anti CD34, CD19 or CD33 antibodies. Anti CD45 antibodies recognize human, but not mouse, cells, and thus, indicates the human origin of the cells. The proliferation and differentiation potential of the engrafted cells was assayed by cloning bone marrow cells in semi-solid medium under conditions that allow specifically growth of human derived colonies essentially as described in (56).

NCCNCCNCCNCCN [TEPA, tetraethylenepentamine]
HMBA-induced differentiation of MEL cells [1]: inhibited
maintaining the undifferentiative phenotype of embryonal stem cells (embryonal stem cells): can replace LIF
Engraftment Colonies (NOD/SCID mice; CB 2 10% FCS (first listed)): 330 per 2 × 10^5 SCID BM cells
Engraftment Colonies (NOD/SCID mice; CB 3 10% FCS): 100 per 2 × 10^5 SCID BM cells
Engraftment Colonies (NOD/SCID mice; CB 6 1% FCS): 350 per 2 × 10^5 SCID BM cells
Engraftment Colonies (NOD/SCID mice; CB 6 10% FCS): 420 per 2 × 10^5 SCID BM cells
cord blood samples that succeeded to engraft the animals (NOD/SCID mice; of 6 samples expanded ex-vivo, without TEPA 2 out of 6): 6
